# Measurements published in patent US11542240B2, “STK19 inhibitors for treatment of cancer” (TRUSTEES OF BOSTON UNIVERSITY, priority 2018, dated 2023).
# Read-outs that look alike come from different tables or passages of the source.
# Key:
# Experiment in all cases: biochemical
# Type in all cases: binding
# [1] = biological target: panel of 468 diverse kinases (Homo sapiens, UniProt Q06418); details: TYRO3; 1000 nM; read-out: Percent Control
# [2] = biological target: panel of 468 diverse kinases (Homo sapiens, UniProt Q13470); details: TNK1; 1000 nM; read-out: Percent Control
# [3] = biological target: panel of 468 diverse kinases (Homo sapiens, UniProt Q9P1W9); details: PIM2; 1000 nM; read-out: Percent Control
# [4] = biological target: panel of 468 diverse kinases (Homo sapiens, UniProt P00533, G719S); details: EGFR(G719S); 1000 nM; read-out: Percent Control
# Sequence of panel of 468 diverse kinases (Homo sapiens, UniProt P00533, G719S) (P00533 25-1210 G719S limits assumed): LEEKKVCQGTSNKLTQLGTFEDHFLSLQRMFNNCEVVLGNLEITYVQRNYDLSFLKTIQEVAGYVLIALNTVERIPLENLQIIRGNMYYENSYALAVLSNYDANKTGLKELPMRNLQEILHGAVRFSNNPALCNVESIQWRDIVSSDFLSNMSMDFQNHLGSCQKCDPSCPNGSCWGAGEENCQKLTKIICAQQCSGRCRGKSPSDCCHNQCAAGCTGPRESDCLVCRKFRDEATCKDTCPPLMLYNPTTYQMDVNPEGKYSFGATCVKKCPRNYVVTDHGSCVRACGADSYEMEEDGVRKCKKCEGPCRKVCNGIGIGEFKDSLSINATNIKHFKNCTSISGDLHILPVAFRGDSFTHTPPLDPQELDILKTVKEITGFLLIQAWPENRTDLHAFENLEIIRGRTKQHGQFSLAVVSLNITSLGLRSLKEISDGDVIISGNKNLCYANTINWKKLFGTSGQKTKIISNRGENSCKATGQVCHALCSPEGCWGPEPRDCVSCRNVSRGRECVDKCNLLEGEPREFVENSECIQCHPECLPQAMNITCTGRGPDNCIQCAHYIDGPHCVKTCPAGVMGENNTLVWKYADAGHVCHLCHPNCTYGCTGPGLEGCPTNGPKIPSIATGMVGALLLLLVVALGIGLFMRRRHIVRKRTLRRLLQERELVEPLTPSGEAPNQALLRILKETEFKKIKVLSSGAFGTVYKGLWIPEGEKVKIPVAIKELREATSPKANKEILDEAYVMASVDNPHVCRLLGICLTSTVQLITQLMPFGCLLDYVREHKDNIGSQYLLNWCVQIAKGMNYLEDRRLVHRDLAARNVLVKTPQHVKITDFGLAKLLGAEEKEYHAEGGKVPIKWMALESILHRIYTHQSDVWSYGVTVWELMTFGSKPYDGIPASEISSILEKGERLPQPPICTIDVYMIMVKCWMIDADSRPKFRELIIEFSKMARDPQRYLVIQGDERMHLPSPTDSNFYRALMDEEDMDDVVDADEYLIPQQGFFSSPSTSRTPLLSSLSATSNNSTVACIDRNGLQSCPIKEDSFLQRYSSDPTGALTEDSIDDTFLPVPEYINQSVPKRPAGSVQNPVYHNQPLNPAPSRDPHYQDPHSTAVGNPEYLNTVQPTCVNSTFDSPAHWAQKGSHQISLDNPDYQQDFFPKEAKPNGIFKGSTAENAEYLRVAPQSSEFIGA
# [5] = biological target: panel of 468 diverse kinases (Homo sapiens, UniProt Q99558); details: NIK; 1000 nM; read-out: Percent Control
# [6] = biological target: panel of 468 diverse kinases (Homo sapiens, UniProt Q5S007); details: LRRK2; 1000 nM; read-out: Percent Control
# [7] = biological target: panel of 468 diverse kinases (Homo sapiens, UniProt Q9UBE8); details: NLK; 1000 nM; read-out: Percent Control
# [8] = biological target: panel of 468 diverse kinases (Homo sapiens, UniProt P51957); details: NEK4; 1000 nM; read-out: Percent Control
# [9] = biological target: panel of 468 diverse kinases (Homo sapiens, UniProt Q6ZN16); details: MAP3K15; 1000 nM; read-out: Percent Control
# [10] = biological target: panel of 468 diverse kinases (Homo sapiens, UniProt Q16513); details: PKN2; 1000 nM; read-out: Percent Control
# [11] = biological target: panel of 468 diverse kinases (Homo sapiens, UniProt Q9BYT3); details: STK33; 1000 nM; read-out: Percent Control
# [12] = biological target: panel of 468 diverse kinases (Homo sapiens, UniProt O14578); details: CIT; 1000 nM; read-out: Percent Control
# [13] = biological target: panel of 468 diverse kinases (Homo sapiens, UniProt Q9P286); details: PAK7; 1000 nM; read-out: Percent Control
# [14] = biological target: panel of 468 diverse kinases (Homo sapiens, UniProt Q14004); details: read-out: Percent Control
# [15] = biological target: panel of 468 diverse kinases (Homo sapiens, UniProt P0C264); details: SgK110; 1000 nM; read-out: Percent Control
# [16] = biological target: panel of 468 diverse kinases (Homo sapiens, UniProt Q14289); details: PYK2; 1000 nM; read-out: Percent Control
# [17] = biological target: panel of 468 diverse kinases (Homo sapiens, UniProt P51813); details: BMX; 1000 nM; read-out: Percent Control
# [18] = biological target: panel of 468 diverse kinases (Homo sapiens, UniProt P00519, T315I); details: 1000 nM, read-out: Percent Control
# [19] = biological target: panel of 468 diverse kinases (Homo sapiens, UniProt P07332); details: FES; 1000 nM; read-out: Percent Control
# [20] = biological target: panel of 468 diverse kinases (Homo sapiens, UniProt Q8IW41); details: MAPKAPK5; 1000 nM; read-out: Percent Control
# [21] = biological target: panel of 468 diverse kinases (Homo sapiens, UniProt Q00526); details: CDK3; 1000 nM; read-out: Percent Control
# [22] = biological target: panel of 468 diverse kinases (Homo sapiens, UniProt P54762); details: EPHB1; 1000 nM; read-out: Percent Control
# Sequence of panel of 468 diverse kinases (Homo sapiens, UniProt P54762) (P54762 18-984 limits assumed): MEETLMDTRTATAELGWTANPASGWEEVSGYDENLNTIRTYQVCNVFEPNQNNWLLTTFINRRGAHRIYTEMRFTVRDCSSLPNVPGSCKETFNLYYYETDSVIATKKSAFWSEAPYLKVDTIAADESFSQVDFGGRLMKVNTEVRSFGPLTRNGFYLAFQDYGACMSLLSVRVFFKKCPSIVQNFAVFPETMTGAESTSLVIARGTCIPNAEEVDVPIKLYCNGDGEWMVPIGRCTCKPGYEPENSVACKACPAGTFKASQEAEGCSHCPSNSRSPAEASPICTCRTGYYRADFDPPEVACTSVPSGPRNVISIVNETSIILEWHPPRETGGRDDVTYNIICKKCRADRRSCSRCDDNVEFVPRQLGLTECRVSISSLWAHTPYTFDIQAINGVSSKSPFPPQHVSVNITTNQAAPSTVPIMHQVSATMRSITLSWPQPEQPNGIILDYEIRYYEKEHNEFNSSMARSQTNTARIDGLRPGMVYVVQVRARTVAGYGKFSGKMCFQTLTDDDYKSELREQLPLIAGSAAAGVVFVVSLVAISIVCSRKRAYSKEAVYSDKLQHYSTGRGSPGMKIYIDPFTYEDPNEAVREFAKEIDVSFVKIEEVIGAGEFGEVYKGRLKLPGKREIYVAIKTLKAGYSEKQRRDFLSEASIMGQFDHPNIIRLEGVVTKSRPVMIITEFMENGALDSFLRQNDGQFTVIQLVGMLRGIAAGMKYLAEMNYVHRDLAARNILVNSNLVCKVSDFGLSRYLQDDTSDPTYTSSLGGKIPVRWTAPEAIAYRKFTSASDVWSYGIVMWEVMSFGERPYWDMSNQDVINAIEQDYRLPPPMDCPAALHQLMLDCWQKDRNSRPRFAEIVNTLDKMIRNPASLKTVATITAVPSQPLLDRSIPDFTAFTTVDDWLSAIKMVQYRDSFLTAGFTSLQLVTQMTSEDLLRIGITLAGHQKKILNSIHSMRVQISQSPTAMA
# [23] = biological target: panel of 468 diverse kinases (Homo sapiens, UniProt Q96J92); details: WNK4; 1000 nM; read-out: Percent Control
# [24] = biological target: panel of 468 diverse kinases (Homo sapiens, UniProt Q96PN8); details: TS SK3; 1000 nM; read-out: Percent Control
# [25] = biological target: panel of 468 diverse kinases (Homo sapiens, UniProt P21127); details: CDC2L1; 1000 nM; read-out: Percent Control
# [26] = biological target: panel of 468 diverse kinases (Homo sapiens, UniProt Q9UEW8); details: STK39; 1000 nM; read-out: Percent Control
# [27] = biological target: panel of 468 diverse kinases (Homo sapiens, UniProt P00533, DEL752-759); details: EGFR(S752-I759del); 1000 nM; read-out: Percent Control
# Sequence of panel of 468 diverse kinases (Homo sapiens, UniProt P00533, DEL752-759) (P00533 with tags, fused parts or gaps DEL752-759 limits assumed): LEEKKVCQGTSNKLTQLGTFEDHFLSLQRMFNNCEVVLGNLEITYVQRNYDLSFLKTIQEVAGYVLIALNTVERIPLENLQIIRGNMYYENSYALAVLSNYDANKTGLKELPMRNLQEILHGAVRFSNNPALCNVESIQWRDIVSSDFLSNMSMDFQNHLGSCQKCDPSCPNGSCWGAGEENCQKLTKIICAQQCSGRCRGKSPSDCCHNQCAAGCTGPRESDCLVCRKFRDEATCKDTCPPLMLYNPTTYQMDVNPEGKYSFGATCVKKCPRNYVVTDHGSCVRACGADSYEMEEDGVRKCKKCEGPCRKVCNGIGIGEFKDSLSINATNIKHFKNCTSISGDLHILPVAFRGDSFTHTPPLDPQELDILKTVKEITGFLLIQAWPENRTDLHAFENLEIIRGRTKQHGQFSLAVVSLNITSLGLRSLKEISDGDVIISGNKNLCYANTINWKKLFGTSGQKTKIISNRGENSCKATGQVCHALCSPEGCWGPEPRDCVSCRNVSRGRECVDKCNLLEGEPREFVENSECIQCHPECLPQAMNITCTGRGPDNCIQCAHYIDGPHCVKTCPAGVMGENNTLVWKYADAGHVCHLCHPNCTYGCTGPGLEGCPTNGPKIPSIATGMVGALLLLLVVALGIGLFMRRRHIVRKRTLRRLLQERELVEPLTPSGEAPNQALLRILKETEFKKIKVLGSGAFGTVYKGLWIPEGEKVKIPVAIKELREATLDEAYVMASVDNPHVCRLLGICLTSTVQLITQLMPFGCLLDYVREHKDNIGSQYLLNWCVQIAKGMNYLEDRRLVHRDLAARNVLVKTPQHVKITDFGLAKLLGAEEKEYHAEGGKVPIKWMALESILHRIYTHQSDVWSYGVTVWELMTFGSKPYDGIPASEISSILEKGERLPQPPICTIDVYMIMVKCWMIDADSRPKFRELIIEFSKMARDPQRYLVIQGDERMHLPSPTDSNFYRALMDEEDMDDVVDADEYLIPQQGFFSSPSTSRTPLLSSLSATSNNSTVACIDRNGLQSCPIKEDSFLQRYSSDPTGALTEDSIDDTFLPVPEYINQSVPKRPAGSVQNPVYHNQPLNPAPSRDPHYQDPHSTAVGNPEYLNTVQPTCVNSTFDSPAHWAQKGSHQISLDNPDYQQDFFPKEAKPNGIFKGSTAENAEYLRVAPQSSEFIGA
# [28] = biological target: panel of 468 diverse kinases (Homo sapiens, UniProt Q9BWU1); details: CDK11; 1000 nM; read-out: Percent Control
# [29] = biological target: panel of 468 diverse kinases (Homo sapiens, UniProt Q96L34); details: MARK4; 1000 nM; read-out: Percent Control
# [30] = biological target: panel of 468 diverse kinases (Homo sapiens, UniProt Q05655); details: PRKCD; 1000 nM; read-out: Percent Control
# [31] = biological target: panel of 468 diverse kinases (Homo sapiens, UniProt P22455); details: FGFR4; 1000 nM; read-out: Percent Control
# Sequence of panel of 468 diverse kinases (Homo sapiens, UniProt P22455) (P22455 22-802 limits assumed): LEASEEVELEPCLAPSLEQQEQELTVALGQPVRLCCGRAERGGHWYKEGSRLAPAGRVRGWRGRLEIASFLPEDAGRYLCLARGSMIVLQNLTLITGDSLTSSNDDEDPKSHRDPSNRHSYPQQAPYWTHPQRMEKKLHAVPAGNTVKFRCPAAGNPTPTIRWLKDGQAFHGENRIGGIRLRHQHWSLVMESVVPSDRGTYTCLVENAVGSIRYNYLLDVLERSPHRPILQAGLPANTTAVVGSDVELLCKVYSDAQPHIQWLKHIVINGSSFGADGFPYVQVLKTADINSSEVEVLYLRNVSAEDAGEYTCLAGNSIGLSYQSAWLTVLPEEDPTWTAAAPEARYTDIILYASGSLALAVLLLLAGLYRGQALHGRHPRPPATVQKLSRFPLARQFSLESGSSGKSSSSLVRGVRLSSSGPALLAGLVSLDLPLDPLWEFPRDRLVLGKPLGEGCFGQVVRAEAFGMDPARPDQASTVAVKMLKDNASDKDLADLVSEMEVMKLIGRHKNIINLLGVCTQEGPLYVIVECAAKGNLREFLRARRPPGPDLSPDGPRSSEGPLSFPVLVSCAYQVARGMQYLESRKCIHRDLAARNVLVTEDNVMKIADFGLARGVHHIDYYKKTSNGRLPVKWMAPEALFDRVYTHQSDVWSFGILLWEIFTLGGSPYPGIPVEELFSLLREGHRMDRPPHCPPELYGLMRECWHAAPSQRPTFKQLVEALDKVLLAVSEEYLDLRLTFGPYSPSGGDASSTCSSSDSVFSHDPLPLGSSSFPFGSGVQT
# Sequence of panel of 468 diverse kinases (Homo sapiens, UniProt Q06418) (Q06418 41-890 limits assumed): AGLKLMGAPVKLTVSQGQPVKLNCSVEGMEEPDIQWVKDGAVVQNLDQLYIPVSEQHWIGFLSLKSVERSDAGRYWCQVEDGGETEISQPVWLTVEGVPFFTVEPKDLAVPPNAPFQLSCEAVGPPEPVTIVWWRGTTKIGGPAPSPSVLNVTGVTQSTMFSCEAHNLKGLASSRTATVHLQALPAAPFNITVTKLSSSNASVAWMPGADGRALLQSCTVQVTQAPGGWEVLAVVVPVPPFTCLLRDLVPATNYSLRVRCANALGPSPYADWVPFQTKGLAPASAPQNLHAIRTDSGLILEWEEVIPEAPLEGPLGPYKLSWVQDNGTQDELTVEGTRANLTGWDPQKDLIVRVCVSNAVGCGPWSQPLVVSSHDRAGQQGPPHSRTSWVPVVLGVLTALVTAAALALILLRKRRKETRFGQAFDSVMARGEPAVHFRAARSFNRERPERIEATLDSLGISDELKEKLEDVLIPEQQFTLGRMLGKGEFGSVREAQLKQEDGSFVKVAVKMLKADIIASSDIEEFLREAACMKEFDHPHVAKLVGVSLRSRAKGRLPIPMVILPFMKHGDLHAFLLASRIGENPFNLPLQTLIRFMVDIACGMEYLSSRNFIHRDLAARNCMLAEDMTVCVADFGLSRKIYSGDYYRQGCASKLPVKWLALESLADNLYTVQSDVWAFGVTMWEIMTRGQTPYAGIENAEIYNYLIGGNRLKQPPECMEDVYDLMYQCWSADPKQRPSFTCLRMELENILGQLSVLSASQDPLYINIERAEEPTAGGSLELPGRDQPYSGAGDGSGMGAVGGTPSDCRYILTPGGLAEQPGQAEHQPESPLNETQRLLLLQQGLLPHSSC
compound,measurement,setting,value
COc1cc2nc(NC3CC3)nc(NC3CCN(C(C)C)CC3)c2cc1OC [Formula IV],remaining activity at 1 µM,[1],100%
same,remaining activity at 1 µM,[2],67%
same,remaining activity at 1 µM,[3],91%
same,remaining activity at 1 µM,[4],91%
same,remaining activity at 1 µM,[5],46%
same,remaining activity at 1 µM,[6],71%
same,remaining activity at 1 µM,[7],100%
same,remaining activity at 1 µM,[8],69%
same,remaining activity at 1 µM,[9],52%
same,remaining activity at 1 µM,[10],98%
same,remaining activity at 1 µM,[11],92%
same,remaining activity at 1 µM,[12],100%
same,remaining activity at 1 µM,[13],92%
same,remaining activity at 1 µM,[14],55%
same,remaining activity at 1 µM,[15],97%
same,remaining activity at 1 µM,[16],93%
same,remaining activity at 1 µM,[17],100%
same,remaining activity at 1 µM,[18]; ABL1(T315I)-nonphosphorylated,100%
same,remaining activity at 1 µM,[18]; ABL1(T315I)-phosphorylated,49%
same,remaining activity at 1 µM,[19],100%
same,remaining activity at 1 µM,[20],63%
same,remaining activity at 1 µM,[21],100%
same,remaining activity at 1 µM,[22],89%
same,remaining activity at 1 µM,[23],70%
same,remaining activity at 1 µM,[24],96%
same,remaining activity at 1 µM,[25],100%
same,remaining activity at 1 µM,[26],58%
same,remaining activity at 1 µM,[27],100%
same,remaining activity at 1 µM,[28],82%
same,remaining activity at 1 µM,[29],95%
same,remaining activity at 1 µM,[30],97%
same,remaining activity at 1 µM,[31],100%
